Source: US20240287094A1, “NITROGEN-CONTAINING HETEROCYCLIC COMPOUND, PREPARATION METHOD THEREFOR, AND APPLICATION THEREOF IN MEDICINES” (Jiangsu Hengrui Pharmaceuticals Co., Ltd., priority 2021, published 2024)
pIC50: −log10 of the molar value.

How the values were obtained:
Assay in all cases: Cell proliferation assay (CellTiter-Glo, intracellular ATP content)
Type in all cases: cell-based
[1] = system: DLD1 cells; settings: DLD-1, 144 h; inhibition of proliferation, human colon cancer cells, 6 days incubation
Description: (§1) The following method evaluates the inhibitory effect of the compounds of the present disclosure on the proliferation of DLD1, DLD1^BRCA2−/−, and MDA-MB-436 cells via IC50 by measuring the intracellular ATP content. The experimental method was briefly described as follows: • I. Experimental materials and instruments • 1. DLD1, human colon cancer cells (Cobioer, Nanjing, CBP60037) • 2. DLD1^BRCa2−/−, human BRCA2 gene knock-out colon cancer cells (Creative biogene, CSC-RT0015) • 3. MDA-MB-436, human breast cancer cells (ATCC, HTB-130) • 4. Fetal bovine serum (GIBCO, 10091-148) • 5. CellTite-Glo reagent (Promega, G^7573) • 6. 96-well cell culture plate (corning, 3903) • 7. Pancreatin (invitrogen, 25200-072) • 8. Microplate reader (BMG, PHERAsta) • 9. Cell counter (Countstar, Shanghai, IC1000) • II. Experimental procedures • DLD1 cells were cultured in an RPMI-1640 medium containing 10% FBS, and passaged 2-3 times a week in a passage ratio of 1:6 or 1:8. During passage, the cells were digested by pancreatin, transferred to a centrifuge tube, and centrifuged for 3 min at 1200 rpm. The supernatant was discarded, and a fresh medium was added to resuspend the cells. To a 96-well cell culture plate, 180 μL of the cell suspension was added at a density of 2.78×10^3 cells/mL. To peripheral wells of the 96-well plate, only 180 μL of complete medium was added.
(§2) The culture plate was incubated in an incubator for 24 h (37° C., 5% CO2).
(§3) The test samples were diluted to 2 mM in DMSO and serially 3-fold diluted to the 10th concentration. Blank and control wells were set. 5 μL of the serially diluted test compound solutions was added to 95 μL of fresh medium. 20 μL of the medium solution containing the compound described above was added to the plate. The plate was incubated in an incubator (37° C., 5% CO2) for 6 days. 90 μL of CellTiter-Glo reagent was added to each well of the 96-well cell culture plate. The plate was let stand for 5-10 min in the dark at room temperature. The chemiluminescence signals were read by a PHERAstar system, and the data were processed by GraphPad software.

[2] = system: DLD1^BRCA2−/− cells; settings: 144 h; inhibition of proliferation, human BRCA2 gene knock-out colon cancer cells, 6 days incubation
Description: as §1
(§4) DLD1^BRCA2−/− cells were cultured in an RPMI-1640 medium containing 10% FBS, and passaged 2-3 times a week in a passage ratio of 1:6 or 1:8. During passage, the cells were digested by pancreatin, transferred to a centrifuge tube, and centrifuged for 3 min at 1200 rpm. The supernatant was discarded, and a fresh medium was added to resuspend the cells. To a 96-well cell culture plate, 180 μL of the cell suspension was added at a density of 8.34×10^3 cells/mL. To peripheral wells of the 96-well plate, only 180 μL of complete medium was added.
as §2, §3

[3] = system: MDA-MB-436 cells; settings: MDA-MB-436, 144 h; inhibition of proliferation, human breast cancer cells, 6 days incubation
Description: as §1
as §4, with “MDA-MB-436” for “DLD1^BRCA2−/−”, “a Leibovitz's L-15” for “an RPMI-1640”, “FBS, 10 μg/mL insulin, and 16 µg/mL glutathione,” for “FBS,”, “1:3” for “1:6”, “1:5.” for “1:8.”
as §2, §3

Compound	pIC50 [1]	pIC50 [2]	pIC50 [3]
CCc1cc2ncc(CN3CCN4c5ccc(C(=O)NC)nc5OCC4C3)cc2[nH]c1=O (racemic) [Example 1, (±)-3-((7-Ethyl-6-oxo-5,6-dihydro-1,5-naphthyridin-3-yl)methyl)-N-methyl-1,2,3,4,4a,5-hexahydropyrazino[1,2-d]pyrido[2,3-b][1,4]oxazine-8-carboxamide]	< 6.00	8.10	8.24
CCc1cc2ncc(CN3CCN4c5ccc(C(=O)NC)nc5COCC4C3)cc2[nH]c1=O (racemic) [Example 3, (±)-3-((7-Ethyl-6-oxo-5,6-dihydro-1,5-naphthyridin-3-yl)methyl)-N-methyl-1,2,3,4,4a,5-hexahydro-7H-pyrazino[2,1-c]pyrido[3,2-e][1,4]oxazepine-9-carboxamide]	< 6.60	8.24	8.96
CCc1cc2ncc(CN3CCN4c5ccc(C(=O)NC)nc5OC[C@H]4C3)cc2[nH]c1=O [Example 2, (R)-3-((7-Ethyl-6-oxo-5,6-dihydro-1,5-naphthyridin-3-yl)methyl)-N-methyl-1,2,3,4,4a,5-hexahydropyrazino[1,2-d]pyrido[2,3-b][1,4]oxazine-8-carboxamide]	< 6.60	8.60	9.00

Results, then the molecule that gave them:

pIC50 [1]	pIC50 [2]	pIC50 [3]	Compound
< 6.00	–	7.73	CCc1cc2ncc(CN3CCN4c5ccc(C(=O)NC)nc5N(C)CC4C3)cc2[nH]c1=O (racemic) [Example 7, (±)-3-((7-Ethyl-6-oxo-5,6-dihydro-1,5-naphthyridin-3-yl)methyl)-N,6-dimethyl-2,3,4,4a,5,6-hexahydro-1H-pyrazino[1,2-a]pyrido[2,3-e]pyrazine-8-carboxamide]
< 6.00	8.11	8.92	CCc1cc2ncc(CN3CCN4c5ccc(C(=O)NC)nc5COC[C@H]4C3)cc2[nH]c1=O [Example 8, (R)-3-((7-Ethyl-6-oxo-5,6-dihydro-1,5-naphthyridin-3-yl)methyl)-N-methyl-1,2,3,4,4a,5-hexahydro-7H-pyrazino[2,1-c]pyrido[3,2-e][1,4]oxazepine-9-carboxamide]
< 6.00	–	7.38	CCc1cc2ncc(CN3CCN4c5ccc(C(=O)NC)nc5NCC4C3)cc2[nH]c1=O (racemic) [Example 6, (±)-3-((7-Ethyl-6-oxo-5,6-dihydro-1,5-naphthyridin-3-yl)methyl)-N-methyl-2,3,4,4a,5,6-hexahydro-1H-pyrazino[1,2-a]pyrido[2,3-e]pyrazine-8-carboxamide]
